The text below walks through data of paper PMC8921294, “Inhibition of mitochondrial LonP1 protease by allosteric blockade of ATP binding and hydrolysis via CDDO and its derivatives” (The Journal of Biological Chemistry, 2022).

One may read the IC50 as the midpoint of a concentration-inhibition curve.

In one data set the target is T1, LonP1 C637S (Homo sapiens, UniProt P36776, C637S).
T1 construct: hexa-histidine (N); made in house; host or cells: Rosetta 2 E. coli
T1 sequence (P36776 68-959 C637S): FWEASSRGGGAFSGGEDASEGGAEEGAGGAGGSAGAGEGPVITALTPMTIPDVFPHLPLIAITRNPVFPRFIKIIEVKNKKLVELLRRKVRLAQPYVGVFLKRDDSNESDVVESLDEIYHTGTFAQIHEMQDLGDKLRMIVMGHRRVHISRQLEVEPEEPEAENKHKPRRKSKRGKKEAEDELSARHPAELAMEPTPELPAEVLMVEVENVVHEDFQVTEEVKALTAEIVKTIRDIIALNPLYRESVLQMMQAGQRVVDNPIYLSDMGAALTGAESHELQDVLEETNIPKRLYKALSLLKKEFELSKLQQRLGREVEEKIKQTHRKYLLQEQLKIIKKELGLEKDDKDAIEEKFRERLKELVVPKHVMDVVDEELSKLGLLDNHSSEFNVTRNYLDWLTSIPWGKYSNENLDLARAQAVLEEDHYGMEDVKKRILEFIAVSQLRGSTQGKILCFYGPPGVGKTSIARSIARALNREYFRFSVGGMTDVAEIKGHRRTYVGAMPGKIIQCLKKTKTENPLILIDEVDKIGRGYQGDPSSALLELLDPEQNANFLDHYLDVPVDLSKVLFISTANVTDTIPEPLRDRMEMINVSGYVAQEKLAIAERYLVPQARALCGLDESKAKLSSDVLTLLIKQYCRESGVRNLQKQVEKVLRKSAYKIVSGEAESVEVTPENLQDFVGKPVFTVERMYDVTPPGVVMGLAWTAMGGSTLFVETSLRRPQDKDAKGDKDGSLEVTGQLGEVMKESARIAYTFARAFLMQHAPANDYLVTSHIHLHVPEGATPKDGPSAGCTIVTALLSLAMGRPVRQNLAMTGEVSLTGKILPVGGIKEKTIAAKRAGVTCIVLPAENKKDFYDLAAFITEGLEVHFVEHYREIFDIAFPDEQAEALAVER
Kind of data set: Endpoint ATPase assay, LonP1 C637S. It counts as biochemical. How it is done: Human mitochondrial LonP1 and mutants lacking the predicted mitochondrial targeting sequence were fused to an N-terminal hexa-histidine affinity tag, expressed in Rosetta 2 E. Coli, and purified using a nickel agarose column as previously described ([72]) and protein concentration and buffer exchange carried out using Amicon Ultra centrifugal filtration. LonP1 mutant constructs were obtained from the PCR-based QuikChange Site-Directed Mutagenesis Kit.
ADP-Glo (Promega) assays were performed according to the manufacturer's protocols. Purified wild-type or mutant LonP1 (400 nM monomer), the 26S proteasome (3 nM), or no enzyme controls were preincubated in 96-well plates (60 min, 25 °C) with ten different concentrations of CDDO and its derivatives, TP-82, enoxolone (5 μM) or DMSO vehicle control in buffer (40 mM Tris-HCl (pH 7.5), 20 mM MgCl2, 0.1 mg/ml BSA and 5% DMSO). The 26S and 20S proteasome were also assayed at 0, 0.75, 1.5, 3, 6, and 12 nM in the absence of CDDO derivatives. […] Assay reagents were used to quench further ATPase activity and generate luminescence signals proportional to the concentration of ADP formed. Background (no enzyme control) luminescence values were subtracted, and resultant values were reported as a percentage of the no drug control (100%). […]

For the next data set, the system named is HeLa ρ^0 cells. In words: Cytotoxicity/apoptosis in HeLa ρ^0 cells (cleaved PARP, procaspase 3 immunoblot). The class given is cell-based, human. As to conditions: 7 h, Fig. 4D. The protocol:
HeLa cells devoid of mitochondrial DNA (HeLa ρ^0) and LCL cells were generated as described previously ([50]). DMEM, RPMI, and fetal bovine serum were purchased from Sigma. All cells were grown with 5% CO2 at 37 °C. LCL cells were cultured in RPMI supplemented with 15% FBS. HeLa Rho 0 cells were cultured in high glucose DMEM (25 mM) (Sigma) supplemented with sodium pyruvate ([…]) and uridine ([…]). CDDO-Me was purchased from Cayman chemicals, and CDDO-AH was synthesized as described previously ([20]). HEK293 cells plated in 60 mm dishes at a confluency of 60 to 70% were transfected with Control or 3′UTR LonP1 siRNA using Lipofectamine 2000 (Invitrogen) and reduced serum OPTI MEM (Sigma) as described in the manufacturer’s protocol to knockdown LonP1, whereas adenoviral transduction was employed to overexpress LonP1. CDDO-Me and CDDO-anhydride were dissolved in DMSO and serially diluted in the respective complete medium and added to HeLa ρ^0 cells and were treated for 7 or 24 h.
Cells were harvested, centrifuged, and washed with PBS and proteins were extracted by adding the lysis buffer (50 mM Tris, [pH 7.5], 300 mM NaCl, and 0.5% Triton X-100) containing 2X Halt phosphatase and protease cocktail inhibitor (Thermo Scientific) for 20 min on ice. After centrifugation at 14,000 rpm for 15 min at 4 °C, the supernatant was collected and estimated for protein by Bradford’s method. […]

Consider `CC1(C)CC[C@]2(C(=O)O)CC[C@]3(C)[C@H](C(=O)C=C4[C@@]5(C)C=C(C#N)C(=O)C(C)(C)[C@@H]5CC[C@]43C)[C@@H]2C1` [CDDO, 2-cyano-3,12-dioxooleana-1,9(11)-dien-28-oic acid], for which, on LonP1 C637S, the “Fold increase in inhibition compared with WT” value came to 4.7. Besides, the IC50 at LonP1 C637S (end-point ATPase assay, N = 1, read-out: CDDO IC50) was found to be 3 µM. Regarding `CC1(C)CC[C@]2(C(=O)OC(=O)[C@]34CCC(C)(C)C[C@H]3[C@H]3C(=O)C=C5[C@@]6(C)C=C(C#N)C(=O)C(C)(C)[C@@H]6CC[C@@]5(C)[C@]3(C)CC4)CC[C@]3(C)[C@H](C(=O)C=C4[C@@]5(C)C=C(C#N)C(=O)C(C)(C)[C@@H]5CC[C@]43C)[C@@H]2C1` [CDDO-anhydride], the “Concentration up to which no change in procaspase 3 levels was observed” value in the data set with HeLa ρ^0 cells was “up to 5 μM”.
